Results published in patent US12304890B2, “R-type pyridyloxycarboxylic acid, salt and ester derivative thereof, and preparation method therefor, and herbicidal composition and application thereof” (Qingdao Kingagroot Chemical Compound Co., Ltd., priority 2018, dated 2025).

Tests used:
Format in all cases: in vivo
Echinochloa crusgalli = assay: Post-emergence test experiment, Echinochloa crusgalli; settings: 1000 g a.i./ha, 3 weeks in greenhouse, fresh weight inhibition
Procedure, shortened: (§1)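 Greenhouse-grown plants sprayed at the 2-3 leaf stage, 2 weeks after sowing, with compound in acetone/tween-80 diluted in water plus 1.5 L/ha methyl oleate emulsifiable concentrate as synergist. Effect scored 3 weeks later as fresh weight inhibition rate.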

Digitaria sanguinalis = assay: Post-emergence test experiment, Digitaria sanguinalis; settings: 1000 g a.i./ha, 3 weeks in greenhouse, fresh weight inhibition
Procedure, shortened: as §1

[1] = system: Monocotyledonous and dicotyledonous weed seeds and main crop seeds; assay: Post-emergence test experiment, other weeds and crops (Table 4, 1000 g a.i./ha); settings: 3 weeks in greenhouse, fresh weight inhibition
Procedure, shortened: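 Weed and crop seeds (wheat, corn, rice, soybean, cotton, oilseed, millet, sorghum) sown in soil pots in a greenhouse and sprayed at 2-3 leaf stage, 2 weeks after sowing. Compound in acetone/tween-80 with methyl oleate concentrate (1.5 L/ha) as synergist. Effect recorded as fresh-weight growth inhibition rate.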

| SMILES | Activity level (growth inhibition rate), Echinochloa crusgalli (Echinochloa crusgalli) | Activity level (growth inhibition rate), Digitaria sanguinalis (Digitaria sanguinalis) | Activity level (growth inhibition rate), Abutilon theophrasti Medic. [1] | Activity level (growth inhibition rate), Galium aparine [1] | Activity level (growth inhibition rate), Monochoria Vaginalis [1] |
| --- | --- | --- | --- | --- | --- |
| COC(=O)CSC(=O)C(C)Oc1nc(F)c(Cl)c(N)c1Cl (stereo not drawn) [Compound 2-290] | 5 (Level 5: the growth inhibition rate is greater than 85%) | 5 (Level 5: the growth inhibition rate is greater than 85%) | 5 (Level 5: the growth inhibition rate is greater than 85%) | 5 (Level 5: the growth inhibition rate is greater than 85%) | 5 (Level 5: the growth inhibition rate is greater than 85%) |
| CCC(OC)OC(=O)C(C)Oc1nc(F)c(Cl)c(N)c1Cl (stereo not drawn) [Compound 2-291] | 5 (Level 5: the growth inhibition rate is greater than 85%) | 5 (Level 5: the growth inhibition rate is greater than 85%) | 5 (Level 5: the growth inhibition rate is greater than 85%) | 5 (Level 5: the growth inhibition rate is greater than 85%) | 5 (Level 5: the growth inhibition rate is greater than 85%) |
| COC(=O)C(C)OC(=O)C(C)Oc1nc(F)c(Cl)c(N)c1Cl (stereo not drawn) [Compound 2-295] | 5 (Level 5: the growth inhibition rate is greater than 85%) | 5 (Level 5: the growth inhibition rate is greater than 85%) | 5 (Level 5: the growth inhibition rate is greater than 85%) | 5 (Level 5: the growth inhibition rate is greater than 85%) | 5 (Level 5: the growth inhibition rate is greater than 85%) |
| COC(=O)OC(C)OC(=O)C(C)Oc1nc(F)c(Cl)c(N)c1Cl (stereo not drawn) [Compound 2-296] | 5 (Level 5: the growth inhibition rate is greater than 85%) | 5 (Level 5: the growth inhibition rate is greater than 85%) | 5 (Level 5: the growth inhibition rate is greater than 85%) | 5 (Level 5: the growth inhibition rate is greater than 85%) | 5 (Level 5: the growth inhibition rate is greater than 85%) |
| CC(Oc1nc(F)c(Cl)c(N)c1Cl)C(=O)OC1CCCO1 (stereo not drawn) [Compound 2-297] | 5 (Level 5: the growth inhibition rate is greater than 85%) | 5 (Level 5: the growth inhibition rate is greater than 85%) | 5 (Level 5: the growth inhibition rate is greater than 85%) | 5 (Level 5: the growth inhibition rate is greater than 85%) | 5 (Level 5: the growth inhibition rate is greater than 85%) |
| CC(Oc1nc(F)c(Cl)c(N)c1Cl)C(=O)Oc1ccccc1 (stereo not drawn) [Compound 2-299] | 5 (Level 5: the growth inhibition rate is greater than 85%) | 5 (Level 5: the growth inhibition rate is greater than 85%) | 5 (Level 5: the growth inhibition rate is greater than 85%) | 5 (Level 5: the growth inhibition rate is greater than 85%) | 5 (Level 5: the growth inhibition rate is greater than 85%) |
| CC(Oc1nc(F)c(Cl)c(N)c1Cl)C(=O)SCc1ccccc1 (stereo not drawn) [Compound 2-301] | 5 (Level 5: the growth inhibition rate is greater than 85%) | 5 (Level 5: the growth inhibition rate is greater than 85%) | 5 (Level 5: the growth inhibition rate is greater than 85%) | 5 (Level 5: the growth inhibition rate is greater than 85%) | 5 (Level 5: the growth inhibition rate is greater than 85%) |
| Cc1ccccc1COC(=O)C(C)Oc1nc(F)c(Cl)c(N)c1Cl (stereo not drawn) [Compound 2-302] | 5 (Level 5: the growth inhibition rate is greater than 85%) | 5 (Level 5: the growth inhibition rate is greater than 85%) | 5 (Level 5: the growth inhibition rate is greater than 85%) | 5 (Level 5: the growth inhibition rate is greater than 85%) | 5 (Level 5: the growth inhibition rate is greater than 85%) |
| Cc1ccccc1CSC(=O)C(C)Oc1nc(F)c(Cl)c(N)c1Cl (stereo not drawn) [Compound 2-303] | 5 (Level 5: the growth inhibition rate is greater than 85%) | 5 (Level 5: the growth inhibition rate is greater than 85%) | 5 (Level 5: the growth inhibition rate is greater than 85%) | 5 (Level 5: the growth inhibition rate is greater than 85%) | 5 (Level 5: the growth inhibition rate is greater than 85%) |
| Cc1cccc(COC(=O)C(C)Oc2nc(F)c(Cl)c(N)c2Cl)c1 (stereo not drawn) [Compound 2-304] | 5 (Level 5: the growth inhibition rate is greater than 85%) | 5 (Level 5: the growth inhibition rate is greater than 85%) | 5 (Level 5: the growth inhibition rate is greater than 85%) | 5 (Level 5: the growth inhibition rate is greater than 85%) | 5 (Level 5: the growth inhibition rate is greater than 85%) |
| Cc1cccc(CSC(=O)C(C)Oc2nc(F)c(Cl)c(N)c2Cl)c1 (stereo not drawn) [Compound 2-305] | 5 (Level 5: the growth inhibition rate is greater than 85%) | 5 (Level 5: the growth inhibition rate is greater than 85%) | 5 (Level 5: the growth inhibition rate is greater than 85%) | 5 (Level 5: the growth inhibition rate is greater than 85%) | 5 (Level 5: the growth inhibition rate is greater than 85%) |
| Cc1ccc(COC(=O)C(C)Oc2nc(F)c(Cl)c(N)c2Cl)cc1 (stereo not drawn) [Compound 2-306] | 5 (Level 5: the growth inhibition rate is greater than 85%) | 5 (Level 5: the growth inhibition rate is greater than 85%) | 5 (Level 5: the growth inhibition rate is greater than 85%) | 5 (Level 5: the growth inhibition rate is greater than 85%) | 5 (Level 5: the growth inhibition rate is greater than 85%) |
